# Measured values from PMC5218480 (PLoS ONE, 2017).
# System: MV-4-11 cells
# Assay: Gene expression microarray analysis (Affymetrix PrimeView) and GSEA
# Type: cell-based, human
# Parameters: RFU PODN (11730768_x_at) / Fold change /veh PODN (11730768_x_at) / RFU LINC00158 (11744669_a_at) / Fold change /veh LINC00158 (11744669_a_at) / RFU DUSP10 (11751237_a_at) / Fold change /veh DUSP10 (11751237_a_at) / RFU ID3 (11757404_x_at) / Fold change /veh ID3 (11757404_x_at) / RFU PLEKHG5 (11737974_s_at) / Fold change /veh PLEKHG5 (11737974_s_at) / RFU LRRC4B (11730491_at) / Fold change /veh LRRC4B (11730491_at) / RFU GIMAP4 (11747438_a_at) / Fold change /veh GIMAP4 (11747438_a_at) / RFU KRT8 (11758183_x_at) / Fold change /veh KRT8 (11758183_x_at) / RFU CNN1 (11734310_a_at) / Fold change /veh CNN1 (11734310_a_at) / RFU VPS37D (11726825_at) / Fold change /veh VPS37D (11726825_at) / RFU C10orf10 (11716522_x_at) / Fold change /veh C10orf10 (11716522_x_at) / RFU KIR2DL2 /// KIR2DL4 /// KIR2DL5A /// KIR2DL5B /// KIR2DS1 /// KIR2DS2 /// KIR2DS3 /// KIR2DS4 /// KIR3DL3 /// KIR3DL3 /// KIR3DS1 (11738374_at) / Fold change /veh KIR2DL2 /// KIR2DL4 /// KIR2DL5A /// KIR2DL5B /// KIR2DS1 /// KIR2DS2 /// KIR2DS3 /// KIR2DS4 /// KIR3DL3 /// KIR3DL3 /// KIR3DS1 (11738374_at) / RFU C1QL1 (11718748_at) / Fold change /veh C1QL1 (11718748_at) / RFU TMPRSS4 (11747572_a_at) / Fold change /veh TMPRSS4 (11747572_a_at) / RFU HAMP (11756126_x_at) / Fold change /veh HAMP (11756126_x_at) / RFU RNFT2 (11725882_a_at) / Fold change /veh RNFT2 (11725882_a_at) / RFU NR4A2 (11747474_a_at) / Fold change /veh NR4A2 (11747474_a_at) / RFU ABCC12 (11746883_a_at) / Fold change /veh ABCC12 (11746883_a_at) / RFU TMEM136 (11760407_x_at) / Fold change /veh TMEM136 (11760407_x_at) / RFU CLDN22 /// WWC2 (11732394_at) / Fold change /veh CLDN22 /// WWC2 (11732394_at) / RFU HLA-DPB1 (11760878_x_at) / Fold change /veh HLA-DPB1 (11760878_x_at) / RFU SPINT1 (11716480_a_at) / Fold change /veh SPINT1 (11716480_a_at) / RFU GAP43 (11754022_s_at) / Fold change /veh GAP43 (11754022_s_at) / RFU A4GNT (11735810_at) / Fold change /veh A4GNT (11735810_at) / RFU PRB3 (11715151_x_at) / Fold change /veh PRB3 (11715151_x_at) / RFU TUBB4B (11761932_at) / Fold change /veh TUBB4B (11761932_at) / RFU CAPN14 (11732068_a_at) / Fold change /veh CAPN14 (11732068_a_at) / RFU TMCC2 (11721928_a_at) / Fold change /veh TMCC2 (11721928_a_at) / RFU IRGQ (11745062_a_at) / Fold change /veh IRGQ (11745062_a_at) / RFU FAM174B (11720279_a_at) / Fold change /veh FAM174B (11720279_a_at) / RFU TMPRSS4 (11748680_a_at) / Fold change /veh TMPRSS4 (11748680_a_at) / RFU FAM212B (11763350_a_at) / Fold change /veh FAM212B (11763350_a_at) / RFU PLEKHG5 (11743358_a_at) / Fold change /veh PLEKHG5 (11743358_a_at) / RFU ZSCAN30 (11745921_a_at) / Fold change /veh ZSCAN30 (11745921_a_at) / RFU CMKLR1 (11741424_a_at) / Fold change /veh CMKLR1 (11741424_a_at) / RFU LOC101060620 /// MAPK8IP1 (11723275_at) / Fold change /veh LOC101060620 /// MAPK8IP1 (11723275_at) / RFU SPTSSB (11747773_x_at) / Fold change /veh SPTSSB (11747773_x_at) / RFU PRSS12 (11739890_at) / Fold change /veh PRSS12 (11739890_at) / RFU BIN1 (11741810_x_at) / Fold change /veh BIN1 (11741810_x_at) / RFU WNT11 (11732464_a_at) / Fold change /veh WNT11 (11732464_a_at) / RFU C10orf10 (11716521_a_at) / Fold change /veh C10orf10 (11716521_a_at) / RFU C5orf56 (11738089_at) / Fold change /veh C5orf56 (11738089_at) / RFU CYB561 (11721691_x_at) / Fold change /veh CYB561 (11721691_x_at) / RFU ANKRD19P (11752326_a_at) / Fold change /veh ANKRD19P (11752326_a_at) / RFU OR2T12 /// OR2T33 /// OR2T8 (11738714_s_at) / Fold change /veh OR2T12 /// OR2T33 /// OR2T8 (11738714_s_at) / RFU VCAN (11748164_a_at) / Fold change /veh VCAN (11748164_a_at) / RFU JSRP1 (11732532_at) / Fold change /veh JSRP1 (11732532_at) / RFU KRTAP10-11 (11738290_x_at) / Fold change /veh KRTAP10-11 (11738290_x_at) / RFU MYO3A (11730013_a_at) / Fold change /veh MYO3A (11730013_a_at) / RFU EBF3 (11725865_a_at) / Fold change /veh EBF3 (11725865_a_at) / RFU CAMK2N1 (11719241_x_at) / Fold change /veh CAMK2N1 (11719241_x_at) / RFU C5orf56 (11738088_a_at) / Fold change /veh C5orf56 (11738088_a_at) / RFU OLFML3 (11715873_a_at) / Fold change /veh OLFML3 (11715873_a_at) / RFU LOC100653217 /// NTM (11731650_a_at) / Fold change /veh LOC100653217 /// NTM (11731650_a_at) / RFU MAPK11 (11762145_a_at) / Fold change /veh MAPK11 (11762145_a_at) / RFU FIZ1 (11724087_x_at) / Fold change /veh FIZ1 (11724087_x_at) / RFU OASL (11726364_x_at) / Fold change /veh OASL (11726364_x_at) / RFU SOX15 (11748057_x_at) / Fold change /veh SOX15 (11748057_x_at) / RFU CD79A (11719716_a_at) / Fold change /veh CD79A (11719716_a_at) / RFU HIST1H1D (11736915_at) / Fold change /veh HIST1H1D (11736915_at) / RFU CASKIN2 (11723855_a_at) / Fold change /veh CASKIN2 (11723855_a_at) / RFU LOC730098 (11760151_x_at) / Fold change /veh LOC730098 (11760151_x_at) / RFU OR4N2 (11742367_at) / Fold change /veh OR4N2 (11742367_at) / RFU PRRT2 (11749266_a_at) / Fold change /veh PRRT2 (11749266_a_at) / RFU SNX32 (11753110_a_at) / Fold change /veh SNX32 (11753110_a_at) / RFU CDHR5 (11726645_a_at) / Fold change /veh CDHR5 (11726645_a_at) / RFU RCAN1 (11760418_a_at) / Fold change /veh RCAN1 (11760418_a_at) / RFU FAM167A (11723789_a_at) / Fold change /veh FAM167A (11723789_a_at) / RFU FAM26E (11764081_at) / Fold change /veh FAM26E (11764081_at) / RFU ISYNA1 (11749810_s_at) / Fold change /veh ISYNA1 (11749810_s_at) / RFU ACY1 (11761880_at) / Fold change /veh ACY1 (11761880_at) / RFU 11764098_at / Fold change /veh 11764098_at / RFU SAMD14 (11745864_x_at) / Fold change /veh SAMD14 (11745864_x_at) / RFU NPB (11741838_a_at) / Fold change /veh NPB (11741838_a_at) / RFU TMPRSS6 (11731388_a_at) / Fold change /veh TMPRSS6 (11731388_a_at) / RFU KRTAP10-2 (11738614_at) / Fold change /veh KRTAP10-2 (11738614_at) / RFU ARHGAP8 /// PRR5-ARHGAP8 (11727945_x_at) / Fold change /veh ARHGAP8 /// PRR5-ARHGAP8 (11727945_x_at) / RFU KRTAP5-7 /// NADSYN1 (11734609_at) / Fold change /veh KRTAP5-7 /// NADSYN1 (11734609_at) / RFU RASL12 (11751679_a_at) / Fold change /veh RASL12 (11751679_a_at) / RFU CDKN2B (11736163_a_at) / Fold change /veh CDKN2B (11736163_a_at) / RFU PRF1 (11729649_at) / Fold change /veh PRF1 (11729649_at) / RFU, ZNF638 /// ZNF638-IT1 / Fold change vs veh, ZNF638 /// ZNF638-IT1 / RFU, PANK3 / Fold change vs veh, PANK3 / RFU, SH3YL1 / Fold change vs veh, SH3YL1 / RFU, ZEB2 / Fold change vs veh, ZEB2 / RFU, NRIP1 / Fold change vs veh, NRIP1 / RFU, PTTG1IP / Fold change vs veh, PTTG1IP / RFU, CAPN2 / Fold change vs veh, CAPN2 / RFU, MED14 / Fold change vs veh, MED14 / RFU, SNORA58 / Fold change vs veh, SNORA58 / RFU, C1orf63 / Fold change vs veh, C1orf63 / RFU, LRRFIP1 / Fold change vs veh, LRRFIP1 / RFU, NDUFAF7 / Fold change vs veh, NDUFAF7 / RFU, SLC12A2 / Fold change vs veh, SLC12A2 / RFU, IBTK / Fold change vs veh, IBTK / RFU, ESF1 / Fold change vs veh, ESF1 / Fold change vs veh, TMEM50B / RFU, TAOK1 / Fold change vs veh, TAOK1 / RFU, ACBD3 / Fold change vs veh, ACBD3 / RFU, TMA16 / Fold change vs veh, TMA16 / RFU, RWDD3 / Fold change vs veh, RWDD3 / RFU, BCAT1 / Fold change vs veh, BCAT1 / RFU, EDEM3 / Fold change vs veh, EDEM3 / RFU, TMEM33 / Fold change vs veh, TMEM33 / RFU, WDR75 / Fold change vs veh, WDR75 / RFU, AHCTF1 / Fold change vs veh, AHCTF1 / RFU, TFRC / Fold change vs veh, TFRC / RFU, ZDHHC17 / Fold change vs veh, ZDHHC17 / RFU, NOM1 / Fold change vs veh, NOM1 / RFU, ARL8B / Fold change vs veh, ARL8B / RFU, ZBTB11 / Fold change vs veh, ZBTB11 / RFU, TAMM41 / Fold change vs veh, TAMM41 / RFU, KIAA1704 /// LOC100996395 / Fold change vs veh, KIAA1704 /// LOC100996395 / RFU, ING1 / Fold change vs veh, ING1 / RFU, TRMT61B / Fold change vs veh, TRMT61B / RFU, FUBP3 / Fold change vs veh, FUBP3 / RFU, TP53 / Fold change vs veh, TP53 / RFU, TNKS2 / Fold change vs veh, TNKS2 / RFU, ZFP14 / Fold change vs veh, ZFP14 / RFU, ACTR2 / Fold change vs veh, ACTR2 / RFU, PPP3R1 / Fold change vs veh, PPP3R1 / RFU, PIK3R1 / Fold change vs veh, PIK3R1 / RFU, HNRNPA1 / Fold change vs veh, HNRNPA1 / RFU, RNF170 / Fold change vs veh, RNF170 / RFU, ZNF28 / Fold change vs veh, ZNF28 / RFU, RNGTT / Fold change vs veh, RNGTT / RFU, OGT / Fold change vs veh, OGT / RFU, BRD1 / Fold change vs veh, BRD1 / RFU, MARS / Fold change vs veh, MARS / RFU, ZNF655 / Fold change vs veh, ZNF655 / RFU, FAHD1 / Fold change vs veh, FAHD1 / RFU, BDP1 / Fold change vs veh, BDP1 / RFU, LRRCC1 / Fold change vs veh, LRRCC1 / RFU, ARID1A / Fold change vs veh, ARID1A / RFU, ZNF146 / Fold change vs veh, ZNF146 / RFU, ZNF330 / Fold change vs veh, ZNF330 / RFU, GPN3 / Fold change vs veh, GPN3 / RFU, C9orf123 / Fold change vs veh, C9orf123 / RFU, N4BP2L2 / Fold change vs veh, N4BP2L2 / RFU, ARFIP1 / Fold change vs veh, ARFIP1 / RFU, FAM179B / Fold change vs veh, FAM179B / RFU, BCL10 / Fold change vs veh, BCL10 / RFU, UHRF1BP1L / Fold change vs veh, UHRF1BP1L / RFU, BET1 / Fold change vs veh, BET1 / RFU, CNOT2 / Fold change vs veh, CNOT2 / RFU, ZNF268 / Fold change vs veh, ZNF268 / Fold change vs veh, ZNF507 / RFU, DGCR2 / Fold change vs veh, DGCR2 / RFU, WDSUB1 / Fold change vs veh, WDSUB1 / Fold change vs veh, HSP90B1 /// MIR3652 / RFU, ADSS / Fold change vs veh, ADSS / RFU, GK / Fold change vs veh, GK / RFU, ZNF148 / Fold change vs veh, ZNF148 / RFU, TAF9 / Fold change vs veh, TAF9 / RFU, SLC1A5 / Fold change vs veh, SLC1A5 / RFU, SLMO2 / Fold change vs veh, SLMO2 / RFU, ABCC4 / Fold change vs veh, ABCC4 / RFU, LOC101060439 /// RAP1B / Fold change vs veh, LOC101060439 /// RAP1B / RFU, RFX7 / Fold change vs veh, RFX7 / RFU, GTPBP10 / Fold change vs veh, GTPBP10 / RFU, CNEP1R1 / Fold change vs veh, CNEP1R1 / RFU, BIVM-ERCC5 /// ERCC5 / Fold change vs veh, BIVM-ERCC5 /// ERCC5 / RFU, ILF3 / Fold change vs veh, ILF3 / RFU 11762660_at / Fold change /veh 11762660_at / RFU VCAN (11757783_s_at) / Fold change /veh VCAN (11757783_s_at) / RFU DDX43 (11728927_at) / Fold change /veh DDX43 (11728927_at) / RFU KRT8 (11758188_x_at) / Fold change /veh KRT8 (11758188_x_at) / RFU NKD1 (11759106_at) / Fold change /veh NKD1 (11759106_at) / RFU SRD5A1 (11742802_a_at) / Fold change /veh SRD5A1 (11742802_a_at) / RFU TPSAB1 /// TPSB2 (11721975_s_at) / Fold change /veh TPSAB1 /// TPSB2 (11721975_s_at) / RFU GSTM3 (11746129_a_at) / Fold change /veh GSTM3 (11746129_a_at) / RFU IL23R (11737362_x_at) / Fold change /veh IL23R (11737362_x_at) / RFU TMEM51 (11727254_a_at) / Fold change /veh TMEM51 (11727254_a_at) / RFU PIWIL2 (11732686_x_at) / Fold change /veh PIWIL2 (11732686_x_at) / RFU ORM1 (11744905_x_at) / Fold change /veh ORM1 (11744905_x_at) / RFU CCDC152 (11743942_at) / Fold change /veh CCDC152 (11743942_at) / RFU ECM1 (11717891_a_at) / Fold change /veh ECM1 (11717891_a_at) / RFU IL23R (11748794_a_at) / Fold change /veh IL23R (11748794_a_at) / RFU TNFAIP8L3 (11732012_x_at) / Fold change /veh TNFAIP8L3 (11732012_x_at) / RFU MBOAT4 (11741988_at) / Fold change /veh MBOAT4 (11741988_at) / RFU 11764193_at / Fold change /veh 11764193_at / RFU TMEM53 (11763286_at) / Fold change /veh TMEM53 (11763286_at) / RFU MAGEB2 (11727129_at) / Fold change /veh MAGEB2 (11727129_at) / RFU TMEM200A (11744735_a_at) / Fold change /veh TMEM200A (11744735_a_at) / RFU CCDC152 (11751479_a_at) / Fold change /veh CCDC152 (11751479_a_at) / RFU FAM211A (11726209_a_at) / Fold change /veh FAM211A (11726209_a_at) / RFU RGS16 (11746705_a_at) / Fold change /veh RGS16 (11746705_a_at) / RFU VCAN (11755009_s_at) / Fold change /veh VCAN (11755009_s_at) / RFU RHOB (11743442_s_at) / Fold change /veh RHOB (11743442_s_at) / RFU RGS16 (11720943_a_at) / Fold change /veh RGS16 (11720943_a_at) / RFU RGS16 (11720944_at) / Fold change /veh RGS16 (11720944_at) / RFU, VPS4B / Fold change vs veh, VPS4B / RFU, CREB1 / Fold change vs veh, CREB1 / RFU, DNAJC13 / Fold change vs veh, DNAJC13 / RFU, GNAQ / Fold change vs veh, GNAQ / RFU, CDK5R1 / Fold change vs veh, CDK5R1 / RFU, ZRANB3 / Fold change vs veh, ZRANB3 / RFU, CUL4A / Fold change vs veh, CUL4A / RFU, CCNY / Fold change vs veh, CCNY / RFU, UFL1 / Fold change vs veh, UFL1 / RFU, COG3 / Fold change vs veh, COG3 / RFU, DIAPH2 / Fold change vs veh, DIAPH2 / RFU, SKA2 / Fold change vs veh, SKA2 / RFU, AFF3 / Fold change vs veh, AFF3 / RFU, LMF1 / Fold change vs veh, LMF1 / RFU, IPO11 / Fold change vs veh, IPO11 / RFU, DFFB / Fold change vs veh, DFFB / RFU, FOXP1 / Fold change vs veh, FOXP1 / RFU, CARD8 / Fold change vs veh, CARD8 / RFU, STRN3 / Fold change vs veh, STRN3 / RFU, ADK / Fold change vs veh, ADK / RFU, RASSF2 / Fold change vs veh, RASSF2 / RFU, WIPF1 / Fold change vs veh, WIPF1 / RFU, LARP1B / Fold change vs veh, LARP1B / RFU, RASA1 / Fold change vs veh, RASA1 / RFU, RB1 / Fold change vs veh, RB1 / RFU, PPFIA1 / Fold change vs veh, PPFIA1 / RFU, MAT2A / Fold change vs veh, MAT2A / RFU, CCT5 / Fold change vs veh, CCT5 / RFU, WDR92 / Fold change vs veh, WDR92 / RFU, CUX1 / Fold change vs veh, CUX1 / RFU, TTC7A / Fold change vs veh, TTC7A / RFU, TMEM135 / Fold change vs veh, TMEM135 / RFU, DEPTOR / Fold change vs veh, DEPTOR / RFU, CPM / Fold change vs veh, CPM / RFU, DNAJB6 / Fold change vs veh, DNAJB6 / RFU, CACNA2D3 / Fold change vs veh, CACNA2D3 / RFU, DTX4 / Fold change vs veh, DTX4 / RFU, TFCP2 / Fold change vs veh, TFCP2 / RFU, GMCL1 /// GMCL1P1 / Fold change vs veh, GMCL1 /// GMCL1P1 / RFU, AEBP2 / Fold change vs veh, AEBP2 / RFU, SNHG1 /// SNORD22 /// SNORD25 /// SNORD26 /// SNORD27 /// SNORD28 /// SNORD29 /// SNORD31 / Fold change vs veh, SNHG1 /// SNORD22 /// SNORD25 /// SNORD26 /// SNORD27 /// SNORD28 /// SNORD29 /// SNORD31 / Fold change (Aza/veh), C12orf56 (ProbeSet 11735607_a_at) / Fold change (ACY-1035/veh), C12orf56 (ProbeSet 11735607_a_at) / Fold change (Aza/veh), FGFR1OP (ProbeSet 11751329_s_at) / Fold change (ACY-1035/veh), FGFR1OP (ProbeSet 11751329_s_at) / Fold change (Aza/veh), VPS36 (ProbeSet 11739960_a_at) / Fold change (ACY-1035/veh), VPS36 (ProbeSet 11739960_a_at) / RFU SYPL1 (11715823_x_at) / Fold change /veh SYPL1 (11715823_x_at) / RFU IGFBP7 (11715501_s_at) / Fold change /veh IGFBP7 (11715501_s_at) / RFU REEP3 (11722064_at) / Fold change /veh REEP3 (11722064_at) / RFU IGLL1 (11728026_x_at) / Fold change /veh IGLL1 (11728026_x_at): dose or concentration left out as unconfirmed
# Conditions: MV-4-11 cells, 48 hours
smiles,measurement,value
Nc1ccc(-c2cccs2)cc1NC(=O)c1ccc2c(c1)cc(C1CC1)n2CCN1CCOCC1 [ACY-1035],Fold change /veh RHOB (11743442_s_at),1.20
